The target in series [1] is HBV. To be noted: ASO.
Series [2] deals with APOL1. Particulars: ASO.

The values below come from the OligoGym collection.

“And” between values parts separate entries of the source, which are not always exact repeats. Equal values may be shown once. After the bases stand the sugars from the 5' end (letter, count) and the backbone: PS all phosphorothioate, else s phosphorothioate and o phosphodiester by linkage. HELM strings list units from the 5' end as sugar, base in round brackets, then linkage (d deoxyribose, r ribose, m 2'-O-methyl, p phosphodiester). Methylation of C is not given here. [moe] = 2'-O-(2-methoxyethyl) (MOE); [cEt] = constrained ethyl (cEt); [sp] = phosphorothioate linkage; e = 2'-O-(2-methoxyethyl) (MOE); k = constrained ethyl (cEt); d = 2'-deoxy (DNA)

For the substance “RNA1{[cEt](T)[sp].d(T)[sp].[cEt](T)[sp].d(A)[sp].[cEt](T)[sp].d(G)[sp].d(C)[sp].d(C)[sp].d(T)[sp].d(A)[sp].d(C)[sp].d(A)[sp].d(G)[sp].d(C)[sp].[moe](C)[sp].[moe](T)}$$$$V2.0”, the target mRNA inhibition in series [1] (HepG2, 0.009375 µM) amounted to 12%; in series [1] (HepG2, 0.01875 µM) it was 14%; in series [1] (HepG2, 0.0375 µM), 32%; in series [1] (HepG2, 0.075 µM) it was 47%; in series [1] (HepG2, 0.15 µM) it was 62%; in series [1] (HepG2, 0.3 µM), 77%.
With “RNA1{[moe](A)[sp].[cEt](A)[sp].[cEt](C)[sp].d(A)[sp].d(A)[sp].d(A)[sp].d(T)[sp].d(G)[sp].d(G)[sp].d(C)[sp].d(A)[sp].d(C)[sp].d(T)[sp].[cEt](A)[sp].[cEt](G)[sp].[moe](T)}$$$$V2.0”, in series [1] (HepG2, 0.07 µM), the target mRNA inhibition is 78% and 76%.
Same read-out and setting: the value for “RNA1{[moe](A)[sp].[cEt](A)[sp].[cEt](C)[sp].d(C)[sp].d(A)[sp].d(C)[sp].d(T)[sp].d(G)[sp].d(A)[sp].d(A)[sp].d(C)[sp].d(A)[sp].d(A)[sp].[cEt](A)[sp].[cEt](T)[sp].[moe](G)}$$$$V2.0” was 64% and 51%; that for “RNA1{[moe](A)[sp].[cEt](A)[sp].[cEt](C)[sp].d(T)[sp].d(G)[sp].d(G)[sp].d(A)[sp].d(G)[sp].d(C)[sp].d(C)[sp].d(A)[sp].d(C)[sp].d(C)[sp].[cEt](A)[sp].[cEt](G)[sp].[moe](C)}$$$$V2.0” was 67% and 68%.
In the case of “TCAGATGGGTACTTCT (sugars kkddddekekeddddd, PS)”, the target mRNA inhibition was 8% in series [2] (A431, 0.0156 µM); 30% in series [2] (A431, 0.0625 µM); 61% in series [2] (A431, 0.25 µM); 86% in series [2] (A431, 1 µM); 91% in series [2] (A431, 2 µM).
Take “TCAGATGGGTACTTCT (sugars kkddddkdkdkddddd, PS)”: the target mRNA inhibition in series [2] (A431, 2 µM) came to 88%.
In turn, “TCAGATGGGTACTTCT (sugars kkddddkekekkdddd, PS)” showed a target mRNA inhibition in series [2] (A431, 2 µM) of 62%.
Consider TCAGTCAGCAGGAGTA (sugars k4 d9 k3, PS), for which the target mRNA inhibition in series [2] (A431, 0.0625 µM) amounted to 55%; in series [2] (A431, 0.25 µM) it was 69%; in series [2] (A431, 1 µM), 70%.
For “TCCGTCAATATATTCT (sugars k2 d4 e3 k2 d5, PS)”, the target mRNA inhibition in series [2] (A431, 0.0156 µM) was determined as 27%; in series [2] (A431, 0.0625 µM) it was 59%; in series [2] (A431, 0.25 µM) it was 84%; in series [2] (A431, 1 µM) it was 93%; in series [2] (A431, 2 µM), 96%.
“TCCGTCAATATATTCT (sugars kkddddekekeddddd, PS)”: the target mRNA inhibition came out at 33% in series [2] (A431, 0.0156 µM); 50% in series [2] (A431, 0.04 µM); 61% in series [2] (A431, 0.0625 µM); 86% in series [2] (A431, 0.25 µM); 96% in series [2] (A431, 1 µM); 97% in series [2] (A431, 2 µM).
For TCCTTGCTGCACTGCC (sugars k4 d9 k3, PS), the target mRNA inhibition in series [2] (A431, 0.0625 µM) stood at 67%; in series [2] (A431, 0.25 µM), 88%; in series [2] (A431, 1 µM), 95%.
As to “TCTATTAGAGGGCTAG (sugars kdddddkekekddddd, PS)”, the target mRNA inhibition in series [2] (A431, 2 µM) worked out at 42%.
Turning to “TCTATTAGAGGGCTAG (sugars kddddkekekeddddd, PS)”, the target mRNA inhibition in series [2] (A431, 2 µM) turned out to be 37%.
Still for that read-out and setting: the value for “TCTATTAGAGGGCTAG (sugars kkddddekekeddddd, PS)” was 67%; that for “TCTCATGGTACAGGAG (sugars kdddddkekekddddd, PS)” was 61%.
TCTGTTAGATACAAAC (sugars k4 d9 k3, PS): the target mRNA inhibition worked out at 34% in series [2] (A431, 0.0625 µM); 63% in series [2] (A431, 0.25 µM); 78% in series [2] (A431, 1 µM).
As to TGAACGCAATGCTGAC (sugars k4 d9 k3, PS), the target mRNA inhibition was found to be 32% in series [2] (A431, 0.0625 µM); 74% in series [2] (A431, 0.25 µM); 90% in series [2] (A431, 1 µM).
As for “TGAAGATTGGCTCTGG (sugars k3 d4 k3 e1 d5, PS)”, in series [2] (A431, 2 µM), the target mRNA inhibition came to 61%.
For TGATGTGGGACTTGTT (sugars k4 d9 k3, PS), the target mRNA inhibition in series [2] (A431, 0.0625 µM) was 61%; in series [2] (A431, 0.25 µM) it was 84%; in series [2] (A431, 1 µM), 93%.
In series [2] (A431, 2 µM), “TGGGAATTATGGAATT (sugars kkddddekekeddddd, PS)” registered a target mRNA inhibition of 78%.
As to TGGGCGAGCGATTGTC (sugars k4 d9 k3, PS), the target mRNA inhibition is 42% in series [2] (A431, 0.0625 µM); 70% in series [2] (A431, 0.25 µM); 83% in series [2] (A431, 1 µM).
As to TGGTCACAGTTCTTGG (sugars k4 d9 k3, PS), the target mRNA inhibition worked out at 80% in series [2] (A431, 0.0625 µM); 90% in series [2] (A431, 0.25 µM); 95% in series [2] (A431, 1 µM).
For “TGGTTCAAAAGCAGCA (sugars k2 d4 e3 k2 d5, PS)”, the target mRNA inhibition in series [2] (A431, 0.0156 µM) came to 41%; in series [2] (A431, 0.0625 µM), 68%; in series [2] (A431, 0.25 µM), 85%; in series [2] (A431, 1 µM) it was 91%; in series [2] (A431, 2 µM), 93%.
